Assay [1] concerns the target T1, Signal transducer and activator of transcription 1-alpha/beta (Homo sapiens, UniProt P42224).
T1 sequence (P42224 whole entry): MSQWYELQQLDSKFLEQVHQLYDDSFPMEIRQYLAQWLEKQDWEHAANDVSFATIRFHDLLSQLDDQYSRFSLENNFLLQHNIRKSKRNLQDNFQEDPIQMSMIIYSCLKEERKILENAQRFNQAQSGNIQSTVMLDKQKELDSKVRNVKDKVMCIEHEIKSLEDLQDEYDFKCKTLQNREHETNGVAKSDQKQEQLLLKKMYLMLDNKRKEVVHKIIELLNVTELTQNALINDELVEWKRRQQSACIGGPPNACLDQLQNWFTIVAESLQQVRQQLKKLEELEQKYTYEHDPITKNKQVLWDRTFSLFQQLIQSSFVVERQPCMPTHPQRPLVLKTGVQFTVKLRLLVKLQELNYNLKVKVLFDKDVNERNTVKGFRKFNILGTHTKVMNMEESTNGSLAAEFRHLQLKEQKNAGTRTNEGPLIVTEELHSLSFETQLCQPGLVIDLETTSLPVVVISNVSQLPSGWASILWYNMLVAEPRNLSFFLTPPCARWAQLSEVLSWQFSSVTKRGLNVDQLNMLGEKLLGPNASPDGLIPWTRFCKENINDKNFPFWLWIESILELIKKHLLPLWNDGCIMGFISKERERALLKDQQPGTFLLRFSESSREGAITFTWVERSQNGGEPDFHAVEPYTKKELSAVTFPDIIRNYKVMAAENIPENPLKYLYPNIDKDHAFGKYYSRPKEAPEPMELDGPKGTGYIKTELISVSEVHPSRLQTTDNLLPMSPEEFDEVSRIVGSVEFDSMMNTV
Description: Inhibition of IFNgamma-induced STAT1 (unknown origin).

Assay [2] can be described thus: Inhibition of IL6-induced STAT3 in human CAL33 cells.

From BindingDB's records for doi:10.1016/j.bmcl.2016.06.017 (University of Pittsburgh, 2016) come the findings set out here.

Broadly, the IC50 is the concentration that gives 50% inhibition.

As for `c1ccc(C2=Nn3c(nnc3-c3cc(-c4ccccc4)[nH]n3)SC2)cc1`, the IC50 in assay [1] was above 50 µM.

In turn, `COc1ccc(C2=Nn3c(nnc3-c3[nH]nc4c3CCC4)SC2C)cc1` (stereo not drawn) returned a 50% inhibitory concentration (IC50) in assay [1] above 50 µM.

Take `C1=Nn2c(nnc2-c2cc(-c3ccccc3)n[nH]2)SC1`: the concentration for half-maximal inhibition (IC50) in assay [1] and in assay [2] was above 50 µM throughout.

For the compound `c1ccc(C2=Nn3c(nnc3-c3[nH]nc4c3CCC4)SC2)cc1`, the 50% inhibitory concentration (IC50) in assay [1] was above 50 µM.

As to `Clc1ccc(C2=Nn3c(nnc3-c3[nH]nc4c3CCC4)SC2)s1`, the IC50 in assay [1] was above 50 µM.

Consider `c1cc(C2=Nn3c(nnc3-c3[nH]nc4c3CCC4)SC2)ccn1`, for which the IC50 in assay [1] and in assay [2] was above 50 µM throughout.

`Clc1ccc(C2=Nn3c(nnc3-c3[nH]nc4c3CCC4)SC2)cc1Cl` showed a concentration for half-maximal inhibition (IC50) in assay [1] above 50 µM.

Regarding `c1ccc(-c2cc(-c3nnc4n3N=C(c3ccncc3)CS4)[nH]n2)cc1`, the IC50 in assay [1] and in assay [2] was above 50 µM throughout.

`Clc1ccc(C2=Nn3c(nnc3-c3cc(-c4ccccc4)n[nH]3)SC2)s1`: the IC50 in assay [1] and in assay [2] was above 50 µM in each case.

Compound `COc1ccc(C2CSc3nnc(-c4[nH]nc5c4CCC5)n3N2)cc1` (stereo not drawn) registered an IC50 in assay [2] above 50 µM.

As for `CC1Sc2nnc(-c3cc(-c4ccc(F)cc4)n[nH]3)n2N=C1c1ccccc1` (stereo not drawn), in assay [1], the IC50 is above 30 µM.

Regarding `CC1=Nn2c(nnc2-c2cc(-c3ccccc3)[nH]n2)SC1`, the IC50 in assay [1] and in assay [2] was above 50 µM in each case.

`Clc1ccc(C2=Nn3c(nnc3-c3[nH]nc4c3CCCC4)SC2)cc1Cl` came in with an IC50 in assay [2] of 15.5 µM.

`CC(C)CC1Sc2nnc(-c3[nH]nc4c3CCC4)n2N=C1c1ccc(Cl)c(Cl)c1` (stereo not drawn) showed an IC50 in assay [1] above 50 µM.

For the compound `C1=Nn2c(nnc2-c2[nH]nc3c2CCC3)SC1`, the IC50 in assay [1] and in assay [2] was above 50 µM in each case.

In turn, `COc1ccc(C2CSc3nnc(-c4cc(-c5ccccc5)n[nH]4)n3N2C(C)=O)cc1` (stereo not drawn) displayed a concentration for half-maximal inhibition (IC50) in assay [2] above 50 µM.

On to `COc1ccc(C2=Nn3c(nnc3-c3cc(-c4ccc(F)cc4)n[nH]3)SC2C)cc1` (stereo not drawn), for which, in assay [1], the IC50 is above 30 µM.

Take `COc1ccc(C2=Nn3c(nnc3-c3[nH]nc4c3CCC4)SC2C(C)C)cc1` (stereo not drawn): in assay [1], the IC50 is above 50 µM.

Consider `C1CCC(C2=Nn3c(nnc3-c3[nH]nc4c3CCC4)SC2)CC1`, for which the figures for the IC50 in assay [1] and in assay [2] were above 50 µM and above 30 µM, respectively.

As for `Clc1ccc(C2=Nn3c(nnc3-c3[nH]nc4c3CCC4)SC2)cc1`, the concentration for half-maximal inhibition (IC50) in assay [1] is above 50 µM.

In turn, `Clc1ccc(C2=Nn3c(nnc3-c3cc(-c4ccccc4)[nH]n3)SC2)cc1` [MLS000558549] displayed an IC50 in assay [1] above 50 µM.

Regarding `Fc1ccc(-c2cc(-c3nnc4n3N=C(c3ccc(Cl)c(Cl)c3)CS4)[nH]n2)cc1`, in assay [2], the IC50 was 7.5 µM.

`Clc1ccc(C2=Nn3c(nnc3-c3cc(-c4ccccc4)n[nH]3)SC2)cc1Cl`: the concentration for half-maximal inhibition (IC50) in assay [1] was above 50 µM.

`CC(C)C1Sc2nnc(-c3[nH]nc4c3CCC4)n2N=C1c1ccc(Cl)c(Cl)c1` (stereo not drawn) came in with an IC50 in assay [1] above 50 µM.

As to `Clc1ccc(C2=Nn3c(nnc3-c3[nH]nc4c3CCC4)SC2Cc2ccccc2)cc1Cl` (stereo not drawn), in assay [1], the half-inhibitory concentration (IC50) is above 50 µM.

For `c1ccc(-c2cc(-c3nnc4n3N=C(C3CCCCC3)CS4)[nH]n2)cc1`, the concentration for half-maximal inhibition (IC50) in assay [1] and in assay [2] was above 50 µM in each case.

Regarding `COc1ccc(C2=Nn3c(nnc3-c3cc(-c4ccccc4)n[nH]3)SC2CC(C)C)cc1` (stereo not drawn), in assay [1], the half-maximal inhibitory concentration (IC50) was above 50 µM.

Turning to `CC1=Nn2c(nnc2-c2[nH]nc3c2CCC3)SC1`, the half-inhibitory concentration (IC50) in assay [1] and in assay [2] was above 50 µM throughout.

`CC1Sc2nnc(-c3[nH]nc4c3CCC4)n2N=C1c1ccc(Cl)c(Cl)c1` (stereo not drawn): in assay [1], the IC50 is above 50 µM.

The compound `Clc1ccc(-c2cc(-c3nnc4n3N=C(c3ccc(Cl)c(Cl)c3)CS4)[nH]n2)cc1` had an IC50 in assay [2] of 14.5 µM.

For the compound `Clc1cccc(C2=Nn3c(nnc3-c3[nH]nc4c3CCC4)SC2)c1`, the half-maximal inhibitory concentration (IC50) in assay [1] was above 50 µM.

Turning to `COc1ccc(C2=Nn3c(nnc3-c3cc(-c4ccccc4)n[nH]3)SC2)cc1`, the IC50 in assay [1] is above 50 µM; in assay [2], 3.7 µM.

`CC1(C)Sc2nnc(-c3[nH]nc4c3CCC4)n2N=C1c1ccc(Cl)c(Cl)c1` came in with a half-maximal inhibitory concentration (IC50) in assay [1] above 50 µM.
